In ChEMBL document CHEMBL5725463, “Amino-dihydrothiazine and amino-dioxido dihydrothiazine compounds as beta-secretase antagonists and methods of use” (2017):

Columns and labels:
Beta-secretase 1 = Beta-secretase 1 (Homo sapiens, UniProt P56817); test: In Vivo Inhibition of Beta-Secretase: Several animal models, including mouse, rat, dog, and monkey, may be used to screen for inhibition of beta-secretase activity in vivo following administration of a test compound sample. Animals used in this invention can be wild type, transgenic, or gene knockout animals. For example, the Tg2576 mouse model, prepared and conducted as described in Hsiao et al., 1996, Science 274, 99-102, and other non-transgenic or gene knockout animals are useful to analyze in vivo inhibition of Amyloid beta peptide (Abeta) production in the presence of inhibitory test compounds. Generally, 2 to 18 month old Tg2576 mice, gene knockout mice or non-transgenic animals are administered test compounds formulated in vehicles, such as cyclodextran, phosphate buffers, hydroxypropyl methylcellulose or other suitable vehicles. […]; type: organism-based
Cathepsin D = Cathepsin D (Homo sapiens, UniProt P07339); test: In Vitro Enzymatic: Recombinant Cat D was expressed in CHO cells. The assay buffer for CathepsinD is 0.05 M citrate pH 3.5, 10% DMSO final, 5 mM CHAPS. The Cat D enzyme (9 nM) is pre-incubated for one hour with inhibitors, typically in about 1 uL of DMSO according to a serial dilution, is added thereto. The assays are effectively started by the addition of different FRET substrates (20 nM for Cat D) and the combination is incubated for one hour. The FRET assay is terminated with by addition of Tris buffer, which raises the pH to neutrality, and the fluorescence is determined. The FRET substrate is a peptide with commercially available fluorophore and quencher, on opposite sides of the BACE cleavage site. The Cat D substrate peptide sequence is based on sequence #1 of Table 1 from Gulnik et al. FEBS Letters v413 p 379-384 1997. Proteolytic cleavage of the FRET substrate releases quenching of fluorescence (Cat D excitation 500 nm and emission 580 nm).Alternatively, a Cat D assay may also be run according to the procedure described in the article, Characterization of new fluorgenic substrates for the rapid and sensitive assay of cathepsin E and cathepsin D, J. Biochem., 125:1137, 1999.; type: cell-based
Sequence of Cathepsin D (P07339 65-162 limits assumed): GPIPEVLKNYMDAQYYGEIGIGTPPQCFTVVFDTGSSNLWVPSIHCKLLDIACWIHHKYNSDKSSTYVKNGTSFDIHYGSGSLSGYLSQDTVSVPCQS
Sequence of Cathepsin D (P07339 169-412 limits assumed): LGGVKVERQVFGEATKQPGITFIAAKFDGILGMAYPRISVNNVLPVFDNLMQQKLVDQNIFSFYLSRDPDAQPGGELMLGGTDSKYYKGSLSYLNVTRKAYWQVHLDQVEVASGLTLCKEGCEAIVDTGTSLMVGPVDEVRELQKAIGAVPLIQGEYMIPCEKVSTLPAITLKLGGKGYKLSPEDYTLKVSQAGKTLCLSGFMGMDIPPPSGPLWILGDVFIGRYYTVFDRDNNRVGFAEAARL

Sequence of Beta-secretase 1 (P56817 whole entry): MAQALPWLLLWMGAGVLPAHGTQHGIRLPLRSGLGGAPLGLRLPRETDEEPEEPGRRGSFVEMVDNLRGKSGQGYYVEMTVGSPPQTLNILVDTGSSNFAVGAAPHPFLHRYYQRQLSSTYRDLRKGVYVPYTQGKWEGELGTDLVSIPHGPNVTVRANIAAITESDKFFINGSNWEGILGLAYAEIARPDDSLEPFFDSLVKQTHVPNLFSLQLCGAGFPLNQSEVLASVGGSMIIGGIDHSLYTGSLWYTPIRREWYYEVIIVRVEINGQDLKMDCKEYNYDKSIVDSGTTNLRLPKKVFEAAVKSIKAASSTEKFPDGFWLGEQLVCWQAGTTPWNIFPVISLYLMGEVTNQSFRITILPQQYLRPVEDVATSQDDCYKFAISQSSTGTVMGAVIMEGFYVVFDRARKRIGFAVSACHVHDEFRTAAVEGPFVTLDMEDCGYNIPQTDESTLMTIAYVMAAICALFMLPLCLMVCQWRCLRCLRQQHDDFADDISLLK

IC50 (Beta-secretase 1)	IC50 (Cathepsin D)	SMILES
0.00076 µM	134 µM	Cc1cc(C#N)cnc1C(=O)Nc1ccc(F)c([C@]2(C)CS(=O)(=O)C3(CCC3)C(N)=N2)c1
0.0016 µM	84.7 µM	Cc1cc(Cl)cnc1C(=O)Nc1ccc(F)c([C@]2(C)CS(=O)(=O)C3(CCC3)C(N)=N2)c1
